Key:
Phosphodiesterase 1 = Phosphodiesterase 1 (Homo sapiens, UniProt P54750+Q01064+Q14123); experiment: Inhibition of phosphodiesterase 1; format: protein assay
[1] = target: cGMP-specific 3',5'-cyclic phosphodiesterase (Homo sapiens, UniProt O76074)
Description: Inhibition of phosphodiesterase 5

## CCCc1nc(C)c2c(=O)[nH]c(-c3cc(S(=O)(=O)N4CCN(C)CC4)ccc3OCC)nn12
Phosphodiesterase 1
  IC50: 300 nM

## CCOc1ccccc1-c1nc(O)c2c(C)nc(C3CCCC3)n2n1
Phosphodiesterase 1
  IC50: 30 nM
[1]
  IC50: 5 nM

## CCCn1cnc2c(O)nc(-c3cc(S(=O)(=O)N4CCN(C)CC4)ccc3OCC)nc21
[1]
  IC50: 10 nM

## CCOc1ccccc1-c1nc(O)n2c(C)nc(C3CCCC3)c2n1
Phosphodiesterase 1
  IC50: 40 nM
[1]
  IC50: 20 nM

## CCOc1ccc(S(=O)(=O)N2CCN(CCO)CC2)cc1-c1nc(O)c2nnc(C3CCCC3)n2n1
Phosphodiesterase 1
  IC50: 50 nM
[1]
  IC50: 50 nM

## CCCc1nc(C)c2c(O)nc(-c3cc(S(=O)(=O)N4CCN(CCO)CC4)ccc3OCC)nn12
Phosphodiesterase 1
  IC50: 20 nM
[1]
  IC50: 5 nM

## CCOc1ccc(S(=O)(=O)N2CCN(CCO)CC2)cc1-c1nc(O)c2c(C)nc(C)n2n1
Phosphodiesterase 1
  IC50: 1000 nM
[1]
  IC50: 10 nM

## CCOc1ccccc1-c1nc(O)c2nnc(C3CCCC3)n2n1
Phosphodiesterase 1
  IC50: 50 nM
[1]
  IC50: 200 nM

## CCOc1ccccc1-c1nc(O)c2c(C)nc(C)n2n1
Phosphodiesterase 1
  IC50: 1000 nM
[1]
  IC50: 200 nM

## CCOc1ccc(S(=O)(=O)N2CCN(C)CC2)cc1-c1nc2c(c(CC)nn2C2CCCC2)c(=O)[nH]1
Phosphodiesterase 1
  IC50: > 1000 nM
[1]
  IC50: 40 nM

## CCOc1ccc(S(=O)(=O)N2CCN(CCO)CC2)cc1-c1nc(O)n2c(C)nc(C3CCCC3)c2n1
Phosphodiesterase 1
  IC50: 30 nM
[1]
  IC50: 10 nM

## CCOc1ccc(S(=O)(=O)N2CCN(C)CC2)cc1-c1nc(O)c2c(CC)nc(C3CCCC3)n2n1
Phosphodiesterase 1
  IC50: > 1000 nM
[1]
  IC50: 7 nM

## CCCn1nc(C)c2c(=O)[nH]c(-c3cc(S(=O)(=O)N4CCN(C)CC4)ccc3OCC)nc21
Phosphodiesterase 1
  IC50: 1000 nM
[1]
  IC50: 8 nM

## CCOc1ccc(S(=O)(=O)N2CCN(CCO)CC2)cc1-c1nc(O)c2onc(C3CCCC3)c2n1
Phosphodiesterase 1
  IC50: 30 nM
[1]
  IC50: 10 nM

## CCCn1cnc2c(O)nc(-c3ccccc3OCC)nc21
Phosphodiesterase 1
  IC50: 10 nM

## CCCc1nc(C)n2c(O)nc(-c3cc(S(=O)(=O)N4CCN(C)CC4)ccc3OCC)nc12
Phosphodiesterase 1
  IC50: 500 nM
[1]
  IC50: 10 nM

## CCCc1n[nH]c2c(O)nc(-c3ccccc3OCC)nc12
[1]
  IC50: 50 nM

## CCCc1nc(C)c2c(=O)[nH]c(-c3ccccc3OCC)nn12
Phosphodiesterase 1
  IC50: 300 nM

## CCOc1ccccc1-c1nc(O)c2onc(C3CCCC3)c2n1
Phosphodiesterase 1
  IC50: 200 nM
[1]
  IC50: 20 nM

## CCOc1ccccc1-c1nc(O)c2ncn(C3CCCC3)c2n1
Phosphodiesterase 1
  IC50: 500 nM
[1]
  IC50: 50 nM

## CCCn1nc(CC)c2c(=O)[nH]c(-c3cc(S(=O)(=O)N4CCN(C)CC4)ccc3OCC)nc21
Phosphodiesterase 1
  IC50: > 1000 nM
[1]
  IC50: 20 nM

## CCOc1ccccc1-c1nc(O)c2ncn(C3CC3)c2n1
Phosphodiesterase 1
  IC50: 1000 nM
[1]
  IC50: 300 nM

## CCOc1ccccc1-c1nc(O)c2ncn(C3CCC3)c2n1
Phosphodiesterase 1
  IC50: 1000 nM
[1]
  IC50: 100 nM

## CCOc1ccc(S(=O)(=O)N2CCN(C)CC2)cc1-c1nc(O)c2c(C)nc(C3CCCC3)n2n1
Phosphodiesterase 1
  IC50: 10 nM
[1]
  IC50: 1 nM

## CCCn1nc(C)c2c(=O)[nH]c(-c3ccccc3OCC)nc21
[1]
  IC50: 1 nM

## CCOc1ccccc1-c1nc(O)c2nnn(C3CCCC3)c2n1
Phosphodiesterase 1
  IC50: 800 nM
[1]
  IC50: 500 nM

## CCOc1ccc(S(=O)(=O)N2CCN(CCO)CC2)cc1-c1nc(O)c2c(C)nc(C3CCCC3)n2n1
Phosphodiesterase 1
  IC50: 10 nM
[1]
  IC50: 1 nM

## CCCc1nc(CC)c2c(O)nc(-c3cc(S(=O)(=O)N4CCN(C)CC4)ccc3OCC)nn12
Phosphodiesterase 1
  IC50: > 1000 nM
[1]
  IC50: 8 nM

## CCCn1nnc2c(O)nc(-c3ccccc3OCC)nc21
[1]
  IC50: 300 nM

## CCOc1ccc(S(=O)(=O)N2CCN(CCO)CC2)cc1-c1nc(O)c2c(n1)c(C1CCCC1)nn2C
Phosphodiesterase 1
  IC50: 10 nM
[1]
  IC50: 5 nM

## CCCc1nc(C)n2c(O)nc(-c3ccccc3OCC)nc12
Phosphodiesterase 1
  IC50: 200 nM
[1]
  IC50: 40 nM

## CCCc1nn(C)c2c(=O)[nH]c(-c3ccccc3OCC)nc12
Phosphodiesterase 1
  IC50: 790 nM

From ChEMBL document CHEMBL1142799, “Comparison of different heterocyclic scaffolds as substrate analog PDE5 inhibitors” (Bioorg Med Chem Lett, 2005)
